From patent US4645769A, “1-oxa-1-dethia-cephalosporin compounds and antibacterial agent comprising the same” (Merck & Co., Inc., priority 1985, dated 1987)
In brackets after ≈: the same amount, converted by molar mass. Structures can show the parent of a compound that is named as a salt. Where two headings read alike, the source gives them in different places.

Experiments:
[1] = tested on: Staphylococcus aureus 209 P JC-1; test: Minimum Inhibitory Concentration (MIC), antibacterial spectrum in vitro; format: cell-based
[2] = tested on: Pseudomonas aeruginosa MB-3833; test: as above; format: cell-based
[3] = tested on: Citrobacter freundii GN-346; test: as above; format: cell-based
[4] = tested on: Klebsiella pneumoniae PCI 602; test: as above; format: cell-based
Proteus morganii 1510 = test: as above; format: cell-based
[5] = tested on: Pseudomonas aeruginosa (GN 10362); test: Efficacy in Mice Infected with Pseudomonas aeruginosa (GN 10362); format: in vivo; settings: GN10362, sc, 168 h
From the text: (§1) A systemic infection was produced by intraperitoneal injection of the appropriate pathogen to mice (five male mice in each group, average body weight 20 g), and the mice were received single subcutaneous dose of the compound one hour after the infection.

[6] = tested on: Streptococcus faecalis ATCC 8043; test: Minimum Inhibitory Concentration (MIC), antibacterial spectrum in vitro; format: cell-based; settings: Enterococcus faecalis
[7] = tested on: Esherichia coli NIHJ JC-2; test: as above; format: cell-based
[8] = tested on: Pseudomonas aeruginosa E-2; test: as above; format: cell-based
[9] = tested on: Salmonella typhimurium LT-2; test: as above; format: cell-based; settings: Salmonella enterica, read-out: Minimum Inhibitory Concentration (MIC)
[10] = tested on: Staphylococus aureus (Smith I); test: Efficacy in Mice Infected with Staphylococus aureus (Smith I); format: in vivo; settings: Staphylococcus aureus, sc, 168 h, St. aureus (Smith I) intraperitoneal infection, single subcutaneous dose one hour after infection, 7 days
From the text: as §1

Streptococcus faecalis = test: Antibacterial activity against Streptococcus faecalis (statement in words); format: cell-based
Pseudomonas aeruginosa = test: Antibacterial activity against Pseudomonas aeruginosa (from Table 1); format: cell-based; settings: in words
Enterobacter cloacae P99 = test: Minimum Inhibitory Concentration (MIC), antibacterial spectrum in vitro; format: cell-based; settings: P99, read-out: Minimum Inhibitory Concentration (MIC)
Esherichia coli TEM DC-2 = test: as above; format: cell-based; settings: read-out: Minimum Inhibitory Concentration (MIC)
[11] = Concentration in Blood Serum after subcutaneous dosing (bioassay using Escherichia coli); format: in vivo; settings: mouse, sc, 25 mg/Kg subcutaneously, mice; for concentration at 0.5 h: 1/2 hour; for concentration at 0.25 h: 1/4 hour; for concentration at 5 min: 1/12 hour
Description: The concentration of the compound in the serum was determined by bioassay using Escherichia coli as assay microorganism.

[12] = tested on: Pseudomonas aeruginosa RPL-11; test: Minimum Inhibitory Concentration (MIC), antibacterial spectrum in vitro; format: cell-based
[13] = 209PJC1, Staphylococcus aureus 209 P JC-1, read-out: Minimum Inhibitory Concentration (MIC)
[14] = MB3833, Pseudomonas aeruginosa MB-3833, read-out: Minimum Inhibitory Concentration (MIC)
[15] = GN346, Citrobacter freundii GN-346, read-out: Minimum Inhibitory Concentration (MIC)
[16] = PCI602, Klebsiella pneumoniae PCI 602, read-out: Minimum Inhibitory Concentration (MIC)
[17] = Morganella morganii, Proteus morganii 1510, read-out: Minimum Inhibitory Concentration (MIC)
[18] = Ps. aeruginosa (GN 10362) intraperitoneal infection, mice, single subcutaneous dose one hour after infection, 7 days, read-out: ED 50
[19] = ATCC8043, Streptococcus faecalis ATCC 8043, read-out: Minimum Inhibitory Concentration (MIC)
[20] = E2, Pseudomonas aeruginosa E-2, read-out: Minimum Inhibitory Concentration (MIC)
[21] = RPL11, Pseudomonas aeruginosa RPL-11, read-out: Minimum Inhibitory Concentration (MIC)

Row | Compound | MIC [1, 13] | MIC [2, 14] | MIC [3, 15] | MIC [4, 16] | MIC (Proteus morganii 1510; [17]) | MIC [6, 19] | MIC [7] | MIC [8, 20] | MIC ([9]; Salmonella typhimurium LT-2) | effectiveness against Streptococcus faecalis (Streptococcus faecalis) | effectiveness against Pseudomonas aeruginosa (Pseudomonas aeruginosa) | MIC (Enterobacter cloacae P99) | MIC (Esherichia coli TEM DC-2) | concentration at 0.5 h [11] | concentration at 0.25 h [11] | concentration at 5 min [11] | concentration at 1 h [11] | MIC [12, 21] | also measured
1 | CO[C@@]1(NC(=O)C(C(=O)O)c2ccc(O)cc2)C(=O)N2C(C(=O)O)=C(CSc3nnnn3C)CO[C@@H]21 (stereo partly shown) [Latamoxef, reference compound] | 3.13 µg/mL (≈ 6.01 µM) | 6.25 µg/mL (≈ 12 µM) | 1.56 µg/mL (≈ 3 µM) | 0.2 µg/mL (≈ 0.384 µM) | 0.2 µg/mL (≈ 0.384 µM) | 25 µg/mL (≈ 48 µM) | 0.1 µg/mL (≈ 0.192 µM) | 6.25 µg/mL (≈ 12 µM) | 0.05 µg/mL (≈ 0.0961 µM) |  |  |  |  |  |  |  |  |  | ED50 [5, 18]: 2.9 mg/kg; ED50 [10]: 0.67 mg/kg
2 | CON=C(C(=O)NC1C(=O)N2C(C(=O)[O-])=C(CSc3cc[n+](CC(F)(F)F)cc3)C(C)OC12)c1csc(N)n1 [Compound 6, (6R,7R)-7-((Z)-2-(2-Aminothiazole-4-yl)-2-methoxyiminoacetamide)-(2S)-2-methyl-3-(1-(2,2,2-trifluoroethyl)pyridinium-4-ylthiomethyl)-1-oxa-1-dethiaceph-3-em-4-carboxylate] | 0.2 µg/mL (≈ 0.341 µM) | 3.13 µg/mL (≈ 5.34 µM) | 50 µg/mL (≈ 85.2 µM) | 0.1 µg/mL (≈ 0.17 µM) | 6.25 µg/mL (≈ 10.7 µM) | 12.5 µg/mL (≈ 21.3 µM) | 0.05 µg/mL (≈ 0.0852 µM) | 3.13 µg/mL (≈ 5.34 µM) | < 0.025 µg/mL | effective against Streptococcus faecalis | effective against Pseudomonas aeruginosa |  |  |  |  |  |  |  | 
3 | CC(C)(ON=C(C(=O)NC1C(=O)N2C(C(=O)[O-])=C(CSc3cc[n+](CC(F)(F)F)cc3)COC12)c1csc(N)n1)C(=O)O [Compound 16, (6R,7R)-7-((Z)-2-(2-Aminothiazole-4-yl)-2-(2-carboxyprop-2-oxyimino)acetamide)-3-(1-(2,2,2-trifluoroethyl)-pyridinium-4-ylthiomethyl)-1-oxa-1-dethiaceph-3-em-4-carboxylate (Sodium Salt)] | 3.13 µg/mL | 1.56 µg/mL | 25 µg/mL | 0.1 µg/mL | 6.25 µg/mL | > 100 µg/mL | 0.1 µg/mL | 1.56 µg/mL | < 0.025 µg/mL |  | effective against Pseudomonas aeruginosa | 128 µg/mL | 0.03 µg/mL | 11000 ng/mL | 20000 ng/mL | 16000 ng/mL | 2400 ng/mL | 32 µg/mL | 
4 | CCON=C(C(=O)NC1C(=O)N2C(C(=O)[O-])=C(CSc3cc[n+](CC(=O)O)cc3)C(C)OC12)c1csc(N)n1 [Compound 8, (6R,7R)-7(Z)-2-(2-Aminothiazole-4-yl)-2-ethoxyiminoacetamide)-(2S)-2-methyl-3-(1-carboxymethylpyridinium-4-ylthiomethyl)-1-oxa-1-dethiaceph-3-em-4-carboxylate (Sodium Salt)] | 0.39 µg/mL | 12.5 µg/mL | 6.25 µg/mL | 0.05 µg/mL | 0.78 µg/mL | 6.25 µg/mL | 0.1 µg/mL | 12.5 µg/mL | 0.05 µg/mL | effective against Streptococcus faecalis |  |  |  |  |  |  |  |  | 
5 | CCON=C(C(=O)NC1C(=O)N2C(C(=O)[O-])=C(CSc3cc[n+](CC(=O)O)cc3)COC12)c1csc(N)n1 [Compound 12, (6R,7R)-7-((Z)-2-(2-Aminothiazole-4-yl)-2-ethoxyiminoacetamido)-3-(1-carboxymethylpyridinium-4-ylthiomethyl)-1-oxa-1-dethiaceph-3-em-4-carboxylate (Sodium Salt)] | 0.39 µg/mL | 12.5 µg/mL | 12.5 µg/mL | 0.025 µg/mL | 12.5 µg/mL | 6.25 µg/mL | < 0.025 µg/mL | 25 µg/mL | < 0.025 µg/mL | effective against Streptococcus faecalis |  |  |  |  |  |  |  |  | 
6 | C[n+]1ccc(SCC2=C(C(=O)[O-])N3C(=O)C(NC(=O)C(=NOCC(=O)O)c4csc(N)n4)C3OC2)cc1 [Compound 13, (6R,7R)-7-((Z)-2-(2-Aminothiazole-4-yl)-2-carboxymethoxyiminoacetamide)-3-(1-methylpyridinium-4-ylthiomethyl)-1-oxa-1-dethiaceph-3-em-4-carboxylate (Sodium Salt)] | 1.56 µg/mL | 6.25 µg/mL | 6.25 µg/mL | 25 µg/mL | 1.56 µg/mL | 50 µg/mL | < 0.025 µg/mL | 6.25 µg/mL | < 0.025 µg/mL |  |  | 64 µg/mL | 1 µg/mL |  |  |  |  | 128 µg/mL | 
7 | CC(C)(O/N=C(\C(=O)N[C@@H]1C(=O)N2C(C(=O)[O-])=C(C[n+]3ccccc3)CS[C@H]12)c1csc(N)n1)C(=O)O [Ceftazidime, reference compound] |  |  |  |  |  |  | 0.1 µg/mL (≈ 0.183 µM) |  |  |  |  | 64 µg/mL (≈ 117 µM) | 0.5 µg/mL (≈ 0.915 µM) | 11500 ng/mL | 20000 ng/mL | 13000 ng/mL | 6300 ng/mL |  | MIC ([1]; Staphylococcus aureus, 209PJC1, read-out: Minimum Inhibitory Concentration (MIC)): 1.56 µg/mL (≈ 2.85 µM); MIC ([2]; Pseudomonas aeruginosa, MB3833, read-out: Minimum Inhibitory Concentration (MIC)): 0.78 µg/mL (≈ 1.43 µM); MIC ([3]; Citrobacter freundii, GN346, read-out: Minimum Inhibitory Concentration (MIC)): 25 µg/mL (≈ 45.7 µM); MIC ([4]; Klebsiella pneumoniae, PCI602, read-out: Minimum Inhibitory Concentration (MIC)): 0.1 µg/mL (≈ 0.183 µM); MIC (Proteus morganii 1510; Morganella morganii, 1510, read-out: Minimum Inhibitory Concentration (MIC)): 12.5 µg/mL (≈ 22.9 µM); ED50 [5]: 0.22 mg/kg; MIC ([6]; ATCC8043, read-out: Minimum Inhibitory Concentration (MIC)): 50 µg/mL (≈ 91.5 µM); MIC ([8]; Pseudomonas aeruginosa, E2, read-out: Minimum Inhibitory Concentration (MIC)): 0.78 µg/mL (≈ 1.43 µM); MIC ([9]; TYPHIMURIUM): 0.05 µg/mL (≈ 0.0915 µM); MIC ([12]; Pseudomonas aeruginosa, RPL11, read-out: Minimum Inhibitory Concentration (MIC)): 3 µg/mL (≈ 5.49 µM)
8 | CON=C(C(=O)NC1C(=O)N2C(C(=O)[O-])=C(CSc3cc[n+](CC(=O)O)cc3)C(C)OC12)c1csc(N)n1 [Compound 7, (6R,7R)-7-((Z)-2-(2-Aminothiazole-4-yl)-2-methoxyiminoacetamide)-(2S)-2-methyl-3-(1-carboxymethylpyridinium-4-ylthiomethyl)-1-oxa-1-dethiaceph-3-em-4-carboxylate (Sodium Salt)] | 0.39 µg/mL | 12.5 µg/mL | 6.25 µg/mL | 0.025 µg/mL | 0.78 µg/mL | 12.5 µg/mL | < 0.025 µg/mL | 12.5 µg/mL | < 0.025 µg/mL | effective against Streptococcus faecalis |  |  |  |  |  |  |  |  | 
9 | CC1OC2C(NC(=O)C(=NOC(C)(C)C(=O)O)c3csc(N)n3)C(=O)N2C(C(=O)[O-])=C1CSc1cc[n+](C)cc1 [Compound 1, (6R,7R)-7-((Z)-2-(2-Aminothiazole-4-yl)-2-(2-carboxyprop-2-oxyimino)acetamide)-(2S)-2-methyl-3-(1-methyl-pyridinium-4-ylthiomethyl)-1-oxa-1-oxa-1-dethiaceph-3-em-4-carboxylate (Sodium Salt)] | 1.56 µg/mL | 3.13 µg/mL | 0.78 µg/mL | 0.2 µg/mL | 0.39 µg/mL | 50 µg/mL | 0.2 µg/mL | 3.13 µg/mL | 0.05 µg/mL |  | effective against Pseudomonas aeruginosa | 1 µg/mL | 0.5 µg/mL | 10600 ng/mL | 18500 ng/mL | 14500 ng/mL | 2200 ng/mL | 4 µg/mL | ED50 [5, 18]: 0.16 mg/kg; ED50 [10]: 0.028 mg/kg
10 | CON=C(C(=O)NC1C(=O)N2C(C(=O)[O-])=C(CSc3cc[n+](C)cc3)COC12)c1csc(N)n1 [Compound 10, (6R,7R)-7-((Z)-2-(2-Aminothiazole-4-yl)-2-methoxyiminoacetamide)-3-(1-methylpyridinium-4-yl-thiomethyl)-1-oxa-1-dethiaceph-3-em-4-carboxylate] | 0.1 µg/mL (≈ 0.198 µM) | 6.25 µg/mL (≈ 12.4 µM) | 1.56 µg/mL (≈ 3.09 µM) | 0.025 µg/mL (≈ 0.0495 µM) | 1.56 µg/mL (≈ 3.09 µM) | 1.56 µg/mL (≈ 3.09 µM) | < 0.025 µg/mL | 25 µg/mL (≈ 49.5 µM) | < 0.025 µg/mL | effective against Streptococcus faecalis |  |  |  |  |  |  |  |  | 
